Test results from patent US20250352518A1, “A BENZIMIDAZOLE COMPOUND WITH ANTIHELMINTHIC ACTIVITY FOR USE IN REVERSING, ARRESTING OR SLOWING DOWN CELLULAR AGEING IN A VERTEBRATE SUBJECT” (RAVAN BIO LIMITED, priority 2022, published 2025).

How the values were obtained:
[1] = tested on: neonatal human epidermal foreskin keratinocytes (NHEKs); experiment: Culture of early passage NHEK's in the presence and absence of Y27632 (live cell counts); type: cell-based
From the text: Neonatal human epidermal foreskin keratinocytes (NHEKs) were used to test the ability of compounds to reverse, arrest or slow down cellular ageing. These cells typically undergo approximately 35 cell divisions before the Hayflick limit is reached but they can be induced to undergo premature senescence and, what has been understood to be, irreversible growth arrest earlier than this by induction of cell-cell contact growth inhibition when cultured at high cell density/to confluence (Poumay & Pittelkow 1995 J Inv Dermatol 104, p 271-276). The inventors were thus inspired to culture post-confluent cells and assess the effect of test compounds on the growth, telomere loss and secretion of inflammatory factors by such cells. […] Lot No 472M197), CaCl2) (Lot No 471055) and Supplements (Lot No 472M013) were all obtained from PromoCell GmBH. NHEK's were thawed directly into a single T75 in 20 mls of complete KSFM (CaCl2 & Supplements), incubated over night at 37° C., 5% CO2 and the medium changed the following day. […] After a further 48 hours both flasks were 60% confluent and phase contrast images were recorded (Zeiss […]). […] The inventors assessed that these cells had stopped growing due to cell-cell contact inhibition and had become post-confluent as defined herein. […]

14th passage NHEK cells = experiment: Toxic effects on late-passage (passage 14) NHEK's; type: cell-based, human; details: 6 days, 10 μM Y27632 or 500 nM Tadalafil+100 nM Fenbendazole
From the text: NHEK's were maintained in complete KSFM for 55 days with serial passage routinely carried out at 80% confluence in T75 flasks, as previously described in 1.1. These cells were not grown to be post-confluent and the cells were therefore not used to assess the ability of test compounds to reverse, arrest or slow down cellular ageing. Instead, the cells were used to assess whether or not Y27632, fenbendazole or tadalafil has any toxic effects. After the 55 days, a total of 50,000 cells/well of 14th passage NHEK cells were seeded into 6 well plates and, after 24 hours, Y27632, and a mixture of Tadalafil and Fenbendazole were added.

[2] = tested on: post-confluent NHEK cells; experiment: Growth of re-cultured post-confluent (cell-cell contact growth arrested) NHEK's; type: cell-based, human; details: for continued growth of post-confluent NHEK's (phase contrast): passage 4, 24 hours with compound, 10 μM Y27632, 500-1250 nM Tadalafil, 50-200 nM Fenbendazole; for concentration causing optimal cell growth: post-confluent NHEK
From the text: Neonatal human epidermal foreskin keratinocytes (NHEKs) were used to test the ability of compounds to reverse, arrest or slow down cellular ageing. These cells typically undergo approximately 35 cell divisions before the Hayflick limit is reached but they can be induced to undergo premature senescence and, what has been understood to be, irreversible growth arrest earlier than this by induction of cell-cell contact growth inhibition when cultured at high cell density/to confluence (Poumay & Pittelkow 1995 J Inv Dermatol 104, p 271-276). The inventors were thus inspired to culture post-confluent cells and assess the effect of test compounds on the growth, telomere loss and secretion of inflammatory factors by such cells. An experimental schematic is provided as FIG. 1. 1.1 Culture of Early Passage NHEK's in the Presence and Absence of y27632 Pooled donor neonatal NHEK's (Cat No C-12005, Lot No 456Z001.1, PromoCell GmBH), serum-free PromoCell Keratinocyte Growth Medium 2 (KSFM, Cat No C20011. Lot No 472M197), CaCl2) (Lot No 471055) and Supplements (Lot No 472M013) were all obtained from PromoCell GmBH. NHEK's were thawed directly into a single T75 in 20 mls of complete KSFM (CaCl2 & Supplements), incubated over night at 37° C., 5% CO2 and the medium changed the following day. After 3 days the cells were 80% confluent and were passaged (Ist) using 0.05% Trypsin+EDTA (Gibco) into ×2 T75 flasks at a split ratio of 1:4. After overnight incubation at 37° C., 5% CO2, the cultures were at 30% confluence and 10 μM Y27632 (Cat No 688000, Lot No 2884132, Merck) was added to one of the flasks. […] Fresh T75 flasks were seeded with 5.0×10^5 cells from each in their respective medium. […] Fresh T75 flasks were seeded, as described previously, and also 1.2×10^4 NHEK cells/well were seeded into 24 well plates, incubated overnight to allow cell attachment, and the following subsequently added to separate wells: • A. NHEK in complete KSFM • B. NHEK+Y27632 in complete KSFM • C. Y27632 treated NHEK transferred to complete KSFM (Y27632 Removed) • D. NHEK transferred to complete KSFM+500 nM Tadalafil • E. NHEK transferred to complete KSFM+750 nM Tadalafil • F. NHEK transferred to complete KSFM+1000 nM Tadalafil • G. NHEK transferred to complete KSFM+1250 nM Tadalafil • H. NHEK transferred to complete KSFM+50 nM Fenbendazole • I. NHEK transferred to complete KSFM+100 nM Fenbendazole • J. NHEK transferred to complete KSFM+150 nM Fenbendazole • K. NHEK transferred to complete KSFM+200 nM Fenbendazole All drugs were added 24 hours after seeding. […] FIG. 2B is an example of the appearance of post-confluent cells.
Post-confluent NHEK's (FIG. 2B) were subsequently passaged (4th) into a fresh 24 well plate using a split ratio of 1 in 4 in 2 mls of fresh complete KSFM. These were left overnight to attach and the same compounds added (as shown in A-K of 1.1) followed by incubation for a further 24 hours and subsequently photographed.

Interleukin 6 (IL-6) = experiment: IL-6 secretion by NHEK's (Human IL-6 SimpleStep ELISA); type: cell-based; details: post-confluent NHEKs, 4 days post-confluence, FIG. 9b; Tadalafil at 500 nM
Protocol: Aliquots of 60,000 NHEK cells were seeded into separate T25 flasks in complete KSFM and incubated at 5% CO2, 37° C. for 3 days until they reached 20% confluence. Fenbendazole and Tadalafil were then added to each of these as either single agents, or in combination, and the cells incubated for a further 3 days at 5% CO2, 37° C. until the cells reached >50% confluence. A sample of medium was then taken for analysis of IL-6 levels using a Human IL-6 SimpleStep ELISA Kit (AbCam Cat No ab178013) according to the manufacturer's instructions (FIG. 9a). Both medium and drugs were replaced, the cells incubated for a further 3 days until confluent, medium and drugs were changed and the incubation continued for 4 days post-confluence when final medium samples were taken for analysis of IL6 levels (FIG. 9b). Each data point was repeated in triplicate and OD 490 nm readings were determined with a Dynex MRX Plate reader.

[3] = tested on: post-confluent NHEK cells; experiment: Growth of re-cultured post-confluent (cell-cell contact growth arrested) NHEK's; type: cell-based, human

C[C@@H](N)[C@H]1CC[C@H](C(=O)Nc2ccncc2)CC1 [Y27632]
total live cell counts ([1]; KSFM+10 μM Y27632, 2nd passage at 80% confluence): 5.2×10^5 cells/ml
cell counts ([1]; KSFM+10 μM Y27632, 3rd passage, 72 hours after seeding 5.0×10^5 cells): 5.3×10^5 cells/ml
proliferation and cell death of late passage cells (14th passage NHEK cells): no proliferation and extensive cell death
continued growth of post-confluent NHEK's (phase contrast) ([2]; FIG. 3): no, or minimal cell rejuvenation

CN1CC(=O)N2[C@H](c3ccc4c(c3)OCO4)c3[nH]c4ccccc4c3C[C@@H]2C1=O [Tadalafil, pyrazino[1′,2′: 1,6]pyrido[3,4-b]indole-1,4-dione, 6-(1,3-benzodioxol-5-yl)-2,3,6,7,12,12a-hexahydro-2-methyl-, (6R,12aR)]
secretion of IL-6 compared to DMSO control (Interleukin 6 (IL-6)): least effective
number of viable cells (Via-1 Assay) following withdrawal of drug ([3]; treatment P3-P5 only, withdrawn following passage 6, 5 days, FIG. 5): 1.3×10^4 cells/ml
number of viable cells (Via-1 Assay) ([3]; treatment continued for passages P3-P6, 5 days after passage 6, FIG. 5): 4.3×10^4 cells/ml
continued growth of post-confluent NHEK's (phase contrast) ([2]; FIG. 3): all exhibited cell growth
concentration causing optimal cell growth ([2]; cultured for a further 24 hrs, FIG. 4): about 1000 nM
concentration causing optimal cell growth ([2]; passage 4, 24 hours, FIG. 3): 750 to 1000 nM
